Data on 2 compounds can be found in patent US11512056B2 (Anhui New Star Pharmaceutical Development Co., Ltd, priority 2018, dated 2022).

The structures appear in SMILES notation. “And” between values parts separate entries of the source, which are not always exact repeats. Equal values may be shown once.

In one experiment the test system is platelets (rabbit blood). Briefly: Inhibition of platelet aggregation in vitro (rabbit blood), ADP-induced, turbidimetric. The conditions noted are these: Oryctolagus cuniculus, rabbit PRP, ADP final concentration 10 μM. Format: cell-based, New Zealand white rabbits. The text has this:
Blood was collected from New Zealand white rabbits (body weight 1-1.5 kg). After the animal was anesthetized with 10% chloral hydrate, the animal was placed supinely on the rabbit board, precordial hair was cut off, and the skin was disinfected with iodine and alcohol. Touch with left hand the 3rd to 4th intercostal space on the left edge of the sternum. Chose the most obvious place for the puncture point. Held the syringe in right hand and insert the needle into the chest cavity. Inserted the needle into the heart and then draw out the blood when feel the heart beating through the needle. […] assay system with a total volume of 300 μL, that is, 280 μL of diluted PRP was taken and placed in a turbidimetric tube, and was incubated with 10 μL of drug or solvent control at 37° C. for 5 minutes, and then 10 μL of different inducers such ADP (final concentration 10 μM) were added to determine the maximum platelet aggregation rate within 5 minutes. Repeation was taken at least three times […].
Platelet-rich plasma (PRP) was obtained by centrifuging blood at 1200 rpm for 10 minutes, and platelet aggregation was measured as described above. […] The platelet density in PRP is counted with a hemocytometer and diluted with platelet-poor plasma (PPP). […]

Experiment [1] deals with human platelets. In words: ADP-induced aggregation of human platelets (PRP, turbidimetric). The experiment is classed as cell-based. As to conditions: for IC50: read-out: IC50 of compound on ADP-induced platelet aggregation rate. On the procedure: Volunteers' whole blood was drawn from venous blood with 1:6 dextro-citrate ACD (85 mmol/L sodium citrate, 71.38 mmol/L citrate, 27.78 mmol/L glucose) for anticoagulation, and centrifuged at 300 g at room temperature for 10 minutes, platelet rich plasma (PRP) was separated.
(§1) The turbidimetric platelet aggregation test was performed on the Chrono-Log Company's dual-channel optical platelet aggregation instrument. The speed of the icon recorder was set to 1 cm/min, and the aggregation curve was recorded. First, the platelet aggregator was preheated to 37° C., 400 μL platelet suspension and stir bar were added to the turbidity tube, use PPP as a reference, and traced the baseline under constant magnetic stirring at 37° C. After the baseline was stable, with experiment plan, different concentrations of antagonists or other reagents were added to treat platelets for 2 minutes, and then the inducer ADP was added to observe and record changes in the aggregation curve.

Experiment [2] concerns human platelets. In words: Thrombin-induced human platelet aggregation (PRP, turbidimetric). The experiment is classed as cell-based. The conditions noted are these: for IC50: read-out: IC50 on thrombin-induced platelet aggregation rate. On the procedure:
Volunteers' whole blood was drawn from venous blood with 1:6 D-citrate ACD (85 mmol/L sodium citrate, 71.38 mmol/L citrate, 27.78 mmol/L glucose) for anticoagulation, and centrifuged at 300 g at room temperature for 10 minutes, platelet rich plasma (PRP) was separated.
as §1, with “C., and” for “C.,”, “tube,” for “tube, use”, “PPP was used” for “PPP”, “baseline is” for “baseline was”, “with the” for “with”

The test system of experiment [3] is human platelets. Briefly: Collagen-induced aggregation of human platelets (PRP, turbidimetric). Format: cell-based. The conditions noted are these: for IC50: read-out: IC50 of compound on collagen-induced platelet aggregation rate. As for the experimental part:
Volunteers' whole blood was drawn from venous blood with 1:6 dextro-citrate ACD (85 mmol/L sodium citrate, 71.38 mmol/L citrate, 27.78 mmol/L glucose) for anticoagulation, and centrifuged at 300 g at room temperature for 10 Minutes, separate platelet rich plasma (PRP).
The turbidimetric platelet aggregation test was performed on the Chrono-Log Company's dual-channel optical platelet aggregation instrument. The speed of the icon recorder was set to 1 cm/min, and the aggregation curve was recorded. First, the platelet aggregator was preheated to 37° C., and 400 μL platelet suspension and stir bar were added to the turbidity tube, PPP was used as a reference, and traced the baseline under constant magnetic stirring at 37° C. After the baseline was stable, with the experiment plan, different concentrations of antagonist or other reagents were added to treat platelets for 2 minutes, and then inducer collagen was added to observe and record changes in the aggregation curve.
The platelet aggregation rate of the solvent control group was set to be 100%. The inhibitory effects of the compounds on normal human platelet aggregation induced by collagen at different concentrations were as follows: […]

Setting [4] is: Homo sapiens, Platelet, column 1.
[5] abbreviates: Homo sapiens, Platelet, column 2.
[6] abbreviates: Homo sapiens, Platelet, column 3.

Broadly, the IC50 is the concentration at which inhibition is half-maximal. Take `CCC(=O)NC(=N)Nc1ccc(C2=NNC(=O)CC2C)cc1` (centres unmarked): the IC50 in the experiment with platelets (rabbit blood) was found to be 334 nM.

One may read the inhibition as how much of the control response was suppressed. Regarding `CCCSc1nc(N[C@@H]2C[C@H]2c2ccc(F)c(F)c2)c2nnn([C@@H]3C[C@H](OCCO)[C@@H](O)[C@H]3O)c2n1` [Ticagrelor, reference compound], the “Aggregation inhibition rate %” value in the experiment on human platelets [1] (10 μM ADP, concentration 0.03 μM) was 13.69%; in the experiment with human platelets [1] (10 μM ADP, concentration 0.1 μM) it was 15.06%; with human platelets [1] (10 μM ADP, concentration 0.3 μM), 20.54%; with human platelets [1] (10 μM ADP, concentration 1 μM) it was 57.53%; in the experiment on human platelets [1] (10 μM ADP, concentration 3 μM), 86.30%; in the experiment on human platelets [2] (0.5 U/ml thrombin, concentration 3 μM, 3 µM), 69.84% and 49.33% and 92.53%. For the same compound, the “Aggregation inhibition rate %” value was 80.95% and 55.41% in the experiment with human platelets [2] (0.5 U/ml thrombin, concentration 10 μM, 10 µM); 81.33% with human platelets [2] (0.5 U/ml thrombin, concentration 20 μM, 20 µM); 4.23% and 1.45% in the experiment with human platelets [3] (1 μg/ml collagen, concentration 0.003 μM, 0.003 µM); 8.69% and 2.98% and 9.86% in the experiment with human platelets [3] (1 μg/ml collagen, concentration 0.01 μM, 0.01 µM); 8.95% and 15.49% with human platelets [3] (1 μg/ml collagen, concentration 0.03 μM, 0.03 µM); 66.17% and 64.78% in the experiment with human platelets [3] (1 μg/ml collagen, concentration 3 μM, 3 µM). Moreover, the “Aggregation inhibition rate %” value with human platelets [3] (1 μg/ml collagen, concentration 10 μM, 10 µM) was 75% and 92.95%. Moreover, in the experiment on human platelets [1] (Homo sapiens, Platelet, 10 μM ADP, concentration 0.005 μM, read-out: Aggregation inhibition rate %), the inhibition at 0.005 µM is 0%. The inhibition at 0.01 µM came out at 4.11% in the experiment with human platelets [1] (Homo sapiens, Platelet, 10 μM ADP, concentration 0.01 μM, read-out: Aggregation inhibition rate %) and 0% in the experiment on human platelets [2] (Homo sapiens, Platelet, 0.5 U/ml thrombin, concentration 0.01 μM, read-out: Aggregation inhibition rate %). Further, the inhibition at 3 µM in the experiment with human platelets [1] (Homo sapiens, Platelet, 10 μM ADP, concentration 3 μM, read-out: Aggregation inhibition rate %) amounted to 100%; with human platelets [3] (Homo sapiens, Platelet, 1 μg/ml collagen, concentration 3 μM, read-out: Aggregation inhibition rate %), 75.4%. The inhibition at 5 µM with human platelets [1] (Homo sapiens, Platelet, 10 μM ADP, concentration 5 μM, read-out: Aggregation inhibition rate %) was found to be 100%. In addition, the inhibition at 10 µM with human platelets [1] (Homo sapiens, Platelet, 10 μM ADP, concentration 10 μM, read-out: Aggregation inhibition rate %) came out at 100%; in the experiment on human platelets [3] (Homo sapiens, Platelet, 1 μg/ml collagen, concentration 10 μM, read-out: Aggregation inhibition rate %), 82.6%. The IC50 is 72 nM with human platelets [1] (setting [4]); 963 nM in the experiment on human platelets [1] (setting [5]); 261 nM with human platelets [1] (setting [6]); 851 nM in the experiment with human platelets [2] (setting [4]); 4020 nM with human platelets [2] (setting [5]); 161 nM with human platelets [2] (setting [6]). Also, the IC50 with human platelets [3] (setting [4]) is 888 nM; in the experiment with human platelets [3] (setting [5]), 532 nM; in the experiment with human platelets [3] (setting [6]) it was 908 nM. Further, in the experiment with human platelets [2] (Homo sapiens, Platelet, 0.5 U/ml thrombin, concentration 0.003 μM, read-out: Aggregation inhibition rate %), the inhibition at 0.003 µM came out at 0%. The inhibition at 20 µM with human platelets [2] (Homo sapiens, Platelet, 0.5 U/ml thrombin, concentration 20 μM, read-out: Aggregation inhibition rate %) amounted to 95.2%; in the experiment on human platelets [3] (Homo sapiens, Platelet, 1 μg/ml collagen, concentration 20 μM, read-out: Aggregation inhibition rate %), 100%. In addition, the inhibition at 0.03 µM with human platelets [3] (Homo sapiens, Platelet, 1 μg/ml collagen, concentration 0.03 μM, read-out: Aggregation inhibition rate %) worked out at 13%.
